Results published in patent US20190374533A1, “COMPOUNDS AND METHODS FOR INHIBITING NHE-MEDIATED ANTIPORT IN THE TREATMENT OF DISORDERS ASSOCIATED WITH FLUID RETENTION OR SALT OVERLOAD AND GASTROINTESTINAL TRACT DISORDERS” (Ardelyx, Inc., priority 2008, published 2019).
Counter-ions that a name gives are not always drawn. Like-named read-outs stand apart in the source and are kept apart here.

What was measured:
[1] = test system: fecal water content; test: Pharmacodynamic model: effect of test compounds on fecal water content; type: in vivo, rat; conditions: female Sprague Dawley rats, 3 mg/kg oral, feces collected 16 hrs; for % Fecal water: mean of 6
Experimental: Normal female Sprague Dawlev rats (Charles-River laboratories international, Hollister, Calif.), 7-8 weeks old with body weight 175-200 g were acclimated for at least 3 days before proceeding to experiments. The animals were provided food (Harlan Teklad 2018c) and water ad lib, through the experiment. Animals were randomly grouped with 6 rats per group.
The experiments were initiated by orally dosing test compounds at 3 mg/kg in volume of 10 ml/kg. Rats from control group were gavaged with the same volume of vehicle (water). After dosing, rats were placed in metabolic cages for 16 hrs (overnight). Food and water consumption were monitored. After sixteen hours, feces and urine were collected. The percent of fecal water was measured by weighing fecal samples before and after drying.
Representative data of % fecal water content are shown in Table 12 (data are expressed as means, with 6 animals per data point). The differences between control and treated groups were evaluated by one way ANOVA with Dunnett post tests. Results are significant if p<0.05.

[2] = molecular target: T1, rat NHE-3 (Rattus norvegicus, UniProt P26433); test: Cell-based assay of NHE-3 activity (Pharmacological Test Example 1); conditions: for IC50: read-out: rat NHE-3 Average pIC50 (converted)
T1 construct: expressed in transfected cells; host or cells: Opossum kidney (OK) cells (ATCC), electroporated
T1 sequence (P26433 29-831): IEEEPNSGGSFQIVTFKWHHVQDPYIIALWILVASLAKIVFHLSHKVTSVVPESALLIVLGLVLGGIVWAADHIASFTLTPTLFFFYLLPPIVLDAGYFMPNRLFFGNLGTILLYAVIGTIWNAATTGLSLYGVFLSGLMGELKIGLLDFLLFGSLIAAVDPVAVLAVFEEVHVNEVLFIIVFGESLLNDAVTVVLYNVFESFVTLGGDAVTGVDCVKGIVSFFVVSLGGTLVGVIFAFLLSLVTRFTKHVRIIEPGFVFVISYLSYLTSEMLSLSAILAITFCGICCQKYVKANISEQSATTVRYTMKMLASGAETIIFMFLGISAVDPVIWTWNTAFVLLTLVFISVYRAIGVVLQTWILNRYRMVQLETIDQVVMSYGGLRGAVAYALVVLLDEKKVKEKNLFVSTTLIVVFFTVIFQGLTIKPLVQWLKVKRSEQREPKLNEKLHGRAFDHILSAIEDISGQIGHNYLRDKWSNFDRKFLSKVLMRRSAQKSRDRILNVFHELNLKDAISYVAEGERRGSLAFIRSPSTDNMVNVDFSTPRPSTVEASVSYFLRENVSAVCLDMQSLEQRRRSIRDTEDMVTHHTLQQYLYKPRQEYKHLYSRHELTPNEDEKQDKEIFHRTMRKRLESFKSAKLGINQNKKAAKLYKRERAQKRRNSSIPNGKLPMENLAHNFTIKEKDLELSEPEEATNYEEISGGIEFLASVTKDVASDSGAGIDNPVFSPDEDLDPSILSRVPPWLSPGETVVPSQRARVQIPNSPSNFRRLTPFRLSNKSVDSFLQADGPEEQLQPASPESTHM
How it was run: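 Na+-dependent H+ exchange tracked with the pH-sensitive dye BCECF in opossum kidney cells transiently expressing rat NHE-3. Intracellular acidification by NH4Cl prepulse, then 10 min in ammonium- and Na+-free HEPES, pH 7.4, room temperature. Initial rates averaged over 3-6 replicates give pIC50.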

[3] = human absorption data; cited from earlier work
[4] = Determination of compound Cmax and AUC; type: in vivo; conditions: rat; Sprague-Dawley rats, oral gavage, serum 0.5-4 h; actual oral dose (mg/kg) given
How it was run: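 Sprague-Dawley rats dosed orally by gavage at 2.5 mg/kg; serum sampled at 0.5, 1, 2 and 4 h. Acetonitrile protein precipitation, then LC/MS/MS quantitation against a standard curve.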

[5] = test system: gastrointestinal motility; test: Restoration of gastrointestinal motility in opioid induced constipation (loperamide); type: in vivo, mice; conditions: vehicle oral / loperamide s.c. (0.3 to 6 mg/kg), 30-minute period
[6] = OK cells expressing rat NHE-3, 0-30 uM test compound, 5 uM EIPA

SMILES | % Fecal water (% of control) [1] | % Fecal water [1] | % FA [3] | also measured
CN1Cc2c(Cl)cc(Cl)cc2[C@H](c2ccc(S(=O)(=O)NCCOCCOCCOCCNC(=O)NCCOCCOCCOCCNS(=O)(=O)c3ccc([C@@H]4CN(C)Cc5c(Cl)cc(Cl)cc54)cc3)cc2)C1 (single isomer, unassigned) [Example 250, (S or R)—N,N′-(13-oxo-3,6,9,17,20,23-hexaoxa-12,14-diazapentacosane-1,25-diyl)bis(4-((S or R)-6,8-dichloro-2-methyl-1,2,3,4-tetrahydroisoquinolin-4-yl)benzenesulfonamide)] | 120% of control | 60% | – | IC50 [2]: < 0.1 µM
CN1Cc2c(Cl)cc(Cl)cc2C(c2cccc(S(=O)(=O)NCCOCCOCCNC(=O)NCCCCNC(=O)NCCOCCOCCNS(=O)(=O)c3cccc(C4CN(C)Cc5c(Cl)cc(Cl)cc54)c3)c2)C1 (stereo not shown) [Example 236, N,N′-(10,17-dioxo-3,6,21,24-tetraoxa-9,11,16,18-tetraazahexacosane-1,26-diyl)bis(3-(6,8-dichloro-2-methyl-1,2,3,4-tetrahydroisoquinolin-4-yl)benzenesulfonamide)] | 128% of control | 64% | – | rat NHE-3 Average pIC50 [2, 6]: >7
OC[C@H]1O[C@@H](O[C@@H]2[C@@H](CO)OC(O)(CO)[C@H]2O)[C@H](O)[C@@H](O)[C@H]1O (mixture of isomers) [lactulose, reference compound] | – | – | 0.6% | –
O=C(O)c1cc(/N=N/c2ccc(O)c(C(=O)O)c2)ccc1O [olsalazine] | – | – | 2.3% | –
OC[C@H]1O[C@H](OC[C@H]2O[C@H](O[C@]3(CO)O[C@H](CO)[C@@H](O)[C@@H]3O)[C@H](O)[C@@H](O)[C@@H]2O)[C@H](O)[C@@H](O)[C@H]1O [raffinose] | – | – | 0.3% | –
CN1Cc2c(Cl)cc(Cl)cc2[C@H](c2ccc(S(=O)(=O)NCCOCCOCCNC(=O)CCC(=O)NCCOCCOCCNS(=O)(=O)c3ccc([C@@H]4CN(C)Cc5c(Cl)cc(Cl)cc54)cc3)cc2)C1 (single isomer, unassigned) [Example 200, N1,N4-bis(2-(2-(2-(4-((S or R)-6,8-dichloro-2-methyl-1,2,3,4-tetrahydroisoquinolin-4-yl)phenylsulfonamido)ethoxy)ethoxy)ethyl)succinamide bis-hydrochloride salt] | 124% of control | 62% | – | IC50 [2, 6]: < 0.1 µM
O=C(O)P(=O)(O)O [foscarnet] | – | – | 17% | –
C=CCc1ccccc1OCC(O)CNC(C)C (stereo not shown) [alprenolol] | – | – | 96% | –
Cc1ccccc1N1C(=O)c2cc(S(N)(=O)=O)c(Cl)cc2NC1C (stereo not shown) [metolazone, Metolazone, reference compound] | – | – | 64% | –
O=C(O)c1cc(/N=N/c2ccc(S(=O)(=O)Nc3ccccn3)cc2)ccc1O [sulfasalazine, reference compound] | – | – | 12% | –
CC(C)NCC(O)COc1cccc2[nH]ccc12 (stereo not shown) [pindolol] | – | – | 92% | –
CCN1CCCC1CNC(=O)c1cc(S(N)(=O)=O)ccc1OC (stereo not shown) [sulpiride] | – | – | 36% | –
OC[C@@H](O)[C@@H](O)[C@H](O)[C@H](O)CO [mannitol, Mannitol, reference compound] | – | – | 26% | –
NC[C@H]1CC[C@H](C(=O)O)CC1 [tranexamic acid] | – | – | 55% | –
CN1Cc2c(Cl)cc(Cl)cc2C(c2ccc(S(=O)(=O)NCCOCCOCCNC(=O)NCCCCNC(=O)NCCOCCOCCNS(=O)(=O)c3ccc(C4CN(C)Cc5c(Cl)cc(Cl)cc54)cc3)cc2)C1 (stereo not shown) [Example 238, N,N′-(10,17-dioxo-3,6,21,24-tetraoxa-9,11,16,18-tetraazahexacosane-1,26-diyl)bis(4-(6,8-dichloro-2-methyl-1,2,3,4-tetrahydroisoquinolin-4-yl)benzenesulfonamide)] | 121% of control | 60% | – | –
CN1Cc2c(Cl)cc(Cl)cc2C(c2ccc(S(=O)(=O)NCCOCCOCCNC(=O)CCC(=O)NCCOCCOCCNS(=O)(=O)c3ccc(C4CN(C)Cc5c(Cl)cc(Cl)cc54)cc3)cc2)C1 (stereo not shown) [Example 177, N1,N4-bis(2-(2-(2-(4-(6,8-dichloro-2-methyl-1,2,3,4-tetrahydroisoquinolin-4-yl)phenylsulfonamido)ethoxy)ethoxy)ethyl)succinamide] | 121% of control | 60% | – | rat NHE-3 Average pIC50 [2]: >7; AUC [4]: < 4 ng·h/mL; Cmax [4]: < 3.2 ng/mL
CN1Cc2c(Cl)cc(Cl)cc2C(c2ccc(S(=O)(=O)NCCOCCOCCNC(=O)COCC(=O)NCCOCCOCCNS(=O)(=O)c3ccc(C4CN(C)Cc5c(Cl)cc(Cl)cc54)cc3)cc2)C1 (stereo not shown) [Example 178, 2,2′-oxybis(N-(2-(2-(2-(4-(6,8-dichloro-2-methyl-1,2,3,4-tetrahydroisoquinolin-4-yl)phenylsulfonamido)ethoxy)ethoxy)ethyl)acetamide)] | 118% of control | 59% | – | rat NHE-3 Average pIC50 [2, 6]: 6 to 7; AUC [4]: < 2 ng·h/mL; Cmax [4]: < 2 ng/mL
CN1Cc2c(Cl)cc(Cl)cc2C(c2cccc(S(=O)(=O)NCCOCCOCCNC(=O)Nc3ccc(NC(=O)NCCOCCOCCNS(=O)(=O)c4cccc(C5CN(C)Cc6c(Cl)cc(Cl)cc65)c4)cc3)c2)C1 (stereo not shown) [Example 237, N,N′-(2,2′-(2,2′-(2,2′-(1,4-phenylenebis(azanediyl))bis(oxomethylene)bis(azanediyl)bis(ethane-2,1-diyl))bis(oxy)bis(ethane-2,1-diyl))bis(oxy)bis(ethane-2,1-diyl))bis(3-(6,8-dichloro-2-methyl-1,2,3,4-tetrahydroisoquinolin-4-yl)benzenesulfonamide)] | 120% of control | 60% | – | rat NHE-3 Average pIC50 [2, 6]: >7
Cc1cc(=O)n(-c2ccccc2)n1C [phenazone] | – | – | 97% | –
CC(=O)Nc1ccc(OCC(O)CNC(C)C)cc1 (stereo not shown) [practolol] | – | – | 95% | –
CN(C)C(=O)C(CCN1CCC(O)(c2ccc(Cl)cc2)CC1)(c1ccccc1)c1ccccc1 [loperamide, reference compound] | – | – | – | length of the small intestine travelled by the Evans Blue dye front [5]: ~25%
CN1Cc2c(Cl)cc(Cl)cc2C(c2cccc(S(=O)(=O)NCCOCCOCCNC(=O)c3ccc(C(=O)NCCOCCOCCNS(=O)(=O)c4cccc(C5CN(C)Cc6c(Cl)cc(Cl)cc65)c4)cc3)c2)C1 (stereo not shown) [Example 234, N1,N4-bis(2-(2-(2-(3-(6,8-dichloro-2-methyl-1,2,3,4-tetrahydroisoquinolin-4-yl)phenylsulfonamido)ethoxy)ethoxy)ethyl)terephthalamide] | 117% of control | 58% | – | rat NHE-3 Average pIC50 [2]: 5 to 6; AUC [4]: < 2 ng·h/mL; Cmax [4]: < 2 ng/mL
CN1Cc2c(Cl)cc(Cl)cc2C(c2ccc(S(=O)(=O)NCCOCCOCCNC(=O)Nc3ccc(NC(=O)NCCOCCOCCNS(=O)(=O)c4ccc(C5CN(C)Cc6c(Cl)cc(Cl)cc65)cc4)cc3)cc2)C1 (stereo not shown) [Example 239, N,N′-(2,2′-(2,2′-(2,2′-(1,4-phenylenebis(azanediyl))bis(oxomethylene)bis(azanediyl)bis(ethane-2,1-diyl))bis(oxy)bis(ethane-2,1-diyl))bis(oxy)bis(ethane-2,1-diyl))bis(4-(6,8-dichloro-2-methyl-1,2,3,4-tetrahydroisoquinolin-4-yl)benzenesulfonamide)] | 114% of control | 58% | – | –
C=CCOc1ccccc1OCC(O)CNC(C)C (stereo not shown) [oxprenolol] | – | – | 97% | –
